{"source": "patent US5326788A", "about": "“Biological fluid purification system” (priority 1992, dated 1994)", "key": {"HIV-1": {"test_system": "HIV-1", "assay": "Syncytia assay, H9 cells infected with IIIb isolate of HIV co-cultured with Supt-1 cells", "assay_type": "cell-based", "conditions": "24 hours", "method": "(§1) In order to assess the effects of Hy and Ps on the ability of HIV to form syncytia, the following experiments were performed. For the analysis of HIV-1, an entry syncytia assay was performed by co-culturing H9 cells (described in Popovic, M. et al. Science 224: 497-500, 1984) infected with the IIIb isolate of HIV with uninfected Supt-1 cells (Walker, B. D. et al. Proc. Nat. Acad. Sci. (USA) 84: 8120-8124, 1987) as the target cell. HIV-2 was tested using HUT78 cells (obtained from the National Institute of Health by reference to Depository Catalog, Reagent Program, Bethesda, Md.) infected with the ROD-2 isolate of HIV-2 co-cultured with uninfected H9 target cells. The infected cells were plated in 96 well plates (10^4 cells per well in RPM1 1640 medium with 10% fetal calf serum) and incubated with or without dilutions of Ps or Hy for 30 minutes at 37° C. 1×10^5 target cells were then added per well and the number of syncytia were quantitatively and qualitatively determined after 24 hours."}, "HIV [1]": {"test_system": "HIV", "assay": "Incubation time of free HIV virus with hypericin needed to inhibit infectivity", "assay_type": "cell-based, Human Immunodeficiency Virus (HIV)"}, "HIV-1 env": {"test_system": "HIV-1 env", "assay": "Syncytia assay, cell line expressing only envelope proteins of HIV-1 IIIb with Supt-1 cells", "assay_type": "cell-based", "conditions": "for syncytia score (number 0-4, size S/M/L): 24 hours", "method": "as §1\nAlso tested in a syncytia assay was a constructed cell line expressing only the envelope proteins of HIV-1 type IIIb isolate (Walker, B. D. et al., supra). These cells, designated HIV-1 env in Table 6, were treated with the indicated concentrations of Ps or Hy and incubated with uninfected Supt-1 target cells as above."}, "HIV-2": {"test_system": "HIV-2", "assay": "Syncytia assay, HUT78 cells infected with ROD-2 isolate co-cultured with H9 cells", "assay_type": "cell-based", "conditions": "24 hours", "method": "as §1"}, "[2]": {"target": "purified reverse transcriptase from murine leukemia virus (Moloney murine leukemia virus isolate Shinnick, UniProt P03355)", "assay": "Direct incubation with purified reverse transcriptase", "assay_type": "biochemical", "method": "(§2) In FIG. 1, open squares represent hypericin-treated and pluses represent pseudohypericin treated HIV. […] Inactivation of the reverse transcriptase activity of the virions was not a result of a direct inhibition of reverse transcriptase activity per se, as incubation of either compound directly with purified reverse transcriptase from either avian myeloblastosis virus or murine leukemia virus had no effect on enzyme activity. Furthermore, aliquots of HIV derived from these H9 cell cultures lost the ability to replicate in culture when exposed to as little as 0.77 micrograms/ml of hypericin."}, "[3]": {"test_system": "purified reverse transcriptase from avian myeloblastosis virus", "assay": "Direct incubation with purified reverse transcriptase", "assay_type": "biochemical", "method": "as §2"}, "Radiation Leukemia Virus": {"test_system": "Radiation Leukemia Virus", "assay": "Inhibition of virus budding from infected AQR cells, reverse transcriptase assay", "assay_type": "cell-based, Radiation Leukemia Virus in AQR (murine leukemia) cells", "conditions": "1 hour incubation, supernatant after 24 hours; read-out: concentration completely inhibiting virus budding", "method": "AQR (murine leukemia) cells producing Radiation Leukemia Virus (prepared as described in Meruelo, D., J. Exp. Med. 149: 898-909, 1979; and Bach, R. G. et al., J. Exp. Med. 160: 270-285, 1984) were incubated for 1 hour with various concentrations of synthetic hypericin (micrograms/ml shown in FIG. 3). The cells were then washed four times with phosphate buffer saline and incubated in fresh culture medium for 24 or 48 hours. Supernatants were then collected, pelleted (at 1000×g) for 15 minutes to remove whole cells and then repelleted at 100,000×g for 1 hour to collect virus particles. The second pellet was used for a reverse transcriptase assay, conducted as described in U.S. application Ser. No. 084,008 (Aug. 10, 1987) and 172,064 (Mar. 23, 1988).\nThe results of the reverse transcriptase assay are plotted in FIG. 3. […] Thus, the minimum incubation period that would destroy the ability of HIV-infected cells to participate in propagation of the HIV infection is likely to be much smaller than the 24 hours employed as the minimum waiting period in this assay."}, "HIV [4]": {"test_system": "HIV", "assay": "Infectivity (ability to replicate in culture) of HIV derived from H9 cell cultures", "assay_type": "cell-based, Human Immunodeficiency Virus (HIV)", "method": "FIG. 2 is a graph showing the effect of hypericin and pseudohypericin on the infectivity of HIV cultured from an AIDS patient.\nas §2"}, "HIV [5]": {"test_system": "HIV", "assay": "Inactivation of HIV from blood of sero-positive patient, reverse transcriptase activity after culture with H9 cells", "assay_type": "cell-based, Human Immunodeficiency Virus (HIV)", "method": "In order to show the effectiveness of the compounds of the present invention in the inactivation of HIV, blood was obtained from an HIV sero-positive patient and treated with hypericin and pseudohypericin at various concentrations for 1 hour at 37° C. and incubated with uninfected H9 cells in culture. Thereafter, reverse transcriptase enzymatic activity was determined as disclosed in U.S. patent application Ser. Nos. 084,008 and 172,064 filed Aug. 10, 1987 and Mar. 23, 1988, respectively.\nas §2"}}, "data": [{"smiles": "Cc1cc(O)c2c(=O)c3c(O)cc(O)c4c5c(O)cc(O)c6c(=O)c7c(O)cc(C)c8c1c2c(c34)c(c78)c65", "note": "[hypericin]", "values": [{"measurement": "syncytia score (number 0-4, size S/M/L)", "setting": "HIV-1; 7 nanograms", "result": 4, "unit": "L"}, {"measurement": "syncytia score (number 0-4, size S/M/L)", "setting": "HIV-1; 14 nanograms", "result": 4, "unit": "L"}, {"measurement": "syncytia score (number 0-4, size S/M/L)", "setting": "HIV-1; 28 nanograms", "result": 3, "unit": "L"}, {"measurement": "syncytia score (number 0-4, size S/M/L)", "setting": "HIV-1; 56 nanograms", "result": 0}, {"measurement": "syncytia score (number 0-4, size S/M/L)", "setting": "HIV-1; 112 nanograms", "result": 0}, {"measurement": "syncytia score (number 0-4, size S/M/L)", "setting": "HIV-1; 225 nanograms", "result": 0}, {"measurement": "syncytia score (number 0-4, size S/M/L)", "setting": "HIV-1; 450 nanograms", "result": 0}, {"measurement": "syncytia score (number 0-4, size S/M/L)", "setting": "HIV-1; 900 nanograms", "result": 0}, {"measurement": "syncytia score (number 0-4, size S/M/L)", "setting": "HIV-1; 1800 nanograms", "result": 0}, {"measurement": "inhibition of virus infectivity", "setting": "HIV [1]; 10 and 5 minutes incubation", "result": "complete"}, {"measurement": "inhibition of virus infectivity", "setting": "HIV [1]; only the time to add compound and centrifuge", "result": "significant inhibition"}, {"measurement": "syncytia score (number 0-4, size S/M/L)", "setting": "HIV-1 env; 7 nanograms", "result": 4, "unit": "L"}, {"measurement": "syncytia score (number 0-4, size S/M/L)", "setting": "HIV-1 env; 14 nanograms", "result": 4, "unit": "L"}, {"measurement": "syncytia score (number 0-4, size S/M/L)", "setting": "HIV-1 env; 28 nanograms", "result": 4, "unit": "L"}, {"measurement": "syncytia score (number 0-4, size S/M/L)", "setting": "HIV-1 env; 56 nanograms", "result": 4, "unit": "L"}, {"measurement": "syncytia score (number 0-4, size S/M/L)", "setting": "HIV-1 env; 112 nanograms", "result": 3, "unit": "M"}, {"measurement": "syncytia score (number 0-4, size S/M/L)", "setting": "HIV-1 env; 225 nanograms", "result": 0}, {"measurement": "syncytia score (number 0-4, size S/M/L)", "setting": "HIV-1 env; 450 nanograms", "result": 0}, {"measurement": "syncytia score (number 0-4, size S/M/L)", "setting": "HIV-1 env; 900 nanograms", "result": 0}, {"measurement": "syncytia score (number 0-4, size S/M/L)", "setting": "HIV-1 env; 1800 nanograms", "result": 0}, {"measurement": "inhibition of the viral entry process (comparison)", "setting": "HIV-1 env; HIV-1 env cells and live virus assays", "result": "more effective than pseudohypericin"}, {"measurement": "syncytia score (number 0-4, size S/M/L)", "setting": "HIV-2; 7 nanograms", "result": 4, "unit": "L"}, {"measurement": "syncytia score (number 0-4, size S/M/L)", "setting": "HIV-2; 14 nanograms", "result": 4, "unit": "L"}, {"measurement": "syncytia score (number 0-4, size S/M/L)", "setting": "HIV-2; 28 nanograms", "result": 4, "unit": "L"}, {"measurement": "syncytia score (number 0-4, size S/M/L)", "setting": "HIV-2; 56 nanograms", "result": 3, "unit": "M"}, {"measurement": "syncytia score (number 0-4, size S/M/L)", "setting": "HIV-2; 112 nanograms", "result": 1, "unit": "S"}, {"measurement": "syncytia score (number 0-4, size S/M/L)", "setting": "HIV-2; 225 nanograms", "result": 0}, {"measurement": "syncytia score (number 0-4, size S/M/L)", "setting": "HIV-2; 450 nanograms", "result": 0}, {"measurement": "syncytia score (number 0-4, size S/M/L)", "setting": "HIV-2; 900 nanograms", "result": 0}, {"measurement": "syncytia score (number 0-4, size S/M/L)", "setting": "HIV-2; 1800 nanograms", "result": 0}, {"measurement": "effect on enzyme activity of purified reverse transcriptase", "setting": "[2]", "result": "no effect"}, {"measurement": "effect on enzyme activity of purified reverse transcriptase", "setting": "[3]", "result": "no effect"}, {"measurement": "IC100", "setting": "Radiation Leukemia Virus", "result": 10, "unit": "µg/mL"}, {"measurement": "concentration abolishing infectivity of HIV (loss of ability to replicate in culture)", "setting": "HIV [4]", "result": 0.77, "unit": "micrograms/ml"}, {"measurement": "minimal effective concentration", "setting": "HIV [4]; Human immunodeficiency virus 1, read-out: concentration abolishing infectivity of HIV (loss of ability to replicate in culture)", "result": 0.77, "unit": "µg/mL"}, {"measurement": "concentration giving complete inactivation of HIV (no reverse transcriptase detected)", "setting": "HIV [5]; 1 hour at 37° C., H9 cells", "result": 2.5, "unit": "micrograms/ml"}, {"measurement": "IC100", "setting": "HIV [5]; Human immunodeficiency virus 1, H9, 1 h, read-out: concentration giving complete inactivation of HIV (no reverse transcriptase detected), 1 hour at 37° C., H9 cells", "result": "> 2.5", "unit": "µg/mL"}]}]}
